# Literature values, collected in patent publication US20110305747A1, “COMBINATION OF DAPSONE WITH OTHER ANTI-ACNE AGENTS” (ALLERGAN, INC., priority 2009, published 2011).
# What was measured:
# [1] = tested on: spontaneous comedones; conditions: Rhino mouse containing a high density of spontaneous comedones (Allec et al, 1997)
# [2] = tested on: CRABPII (cellular retinol-binding protein II)
# [3] = tested on: P. acnes
SMILES,Comedolytic activity [1],"mean Cmax of adapalene (0.3% adapalene gel on face, chest and back, approx. 2 mg/cm2, Day 10 of treatment, 15 of 16 patients quantifiable (LOQ=0.1 ng/mL)) [ng/mL]","Mean AUC0-24hr (0.3% adapalene gel, approx. 2 mg/cm2, Day 10, 15 of the 16 patients) [ng·h/mL]","Terminal apparent half-life, mean (0.3% adapalene gel, 15 of 16 patients) [h]","Detection in plasma 72 hours after the last application (0.3% adapalene gel, all but one subject)",Binding to CRABPII [2],MIC90 against P. acnes [3] [µg/mL]
COc1ccc(-c2ccc3cc(C(=O)O)ccc3c2)cc1C12CC3CC(CC(C3)C1)C2 [adapalene],comedolytic activity,0.553 ± 0.466,8.37 ± 8.46,17.2 ± 10.2,not detected,does not bind,–
Nc1ccc(S(=O)(=O)c2ccc(N)cc2)cc1 [dapsone],–,–,–,–,–,–,8
